In patent publication US11072601B2, “μ-opioid receptor agonist and preparation method therefor and use thereof in field of medicine” (SHANGHAI SYNERGY PHARMACEUTICAL SCIENCES CO., LTD., priority 2017, dated 2021):

Experiments:
[1] = biological target: T1, β-arrestin signaling pathway of MOR (Homo sapiens, UniProt P35372); assay: cell-based; conditions: PathHunter HEK293 cells, relative to endorphin MAX control
T1 construct: host or cells: HEK293 (PathHunter cell line)

μ opioid receptor (MOR) = biological target: T2, μ opioid receptor (MOR) (Homo sapiens, UniProt P35372); assay: cell-based; conditions: HEK293 stably expressing μ opioid receptor, FLIPR calcium
T2 construct: host or cells: HEK293

SD rats = assay: Respiratory depression in rats, arterial blood gas PCO2; assay type: in vivo; conditions: for PCO2, 5 min before administration: arterial blood; for PCO2, 5 min after administration / PCO2, 30 min after administration / PCO2, 60 min after administration / PCO2, 120 min after administration: intravenous single dose 0.3 mg/kg (morphine 24 mg/kg)
[2] = biological target: T3, cAMP pathway of MOR receptor (Homo sapiens, UniProt P35372); assay: cell-based; conditions: cAMP Hunter HEK293 cells, forskolin-induced cAMP; read-out: EC50 of cAMP levels affected by agonistic effect on MOR
T3 construct: host or cells: HEK293 (cAMP Hunter cell line)
T3 sequence (P35372 whole entry): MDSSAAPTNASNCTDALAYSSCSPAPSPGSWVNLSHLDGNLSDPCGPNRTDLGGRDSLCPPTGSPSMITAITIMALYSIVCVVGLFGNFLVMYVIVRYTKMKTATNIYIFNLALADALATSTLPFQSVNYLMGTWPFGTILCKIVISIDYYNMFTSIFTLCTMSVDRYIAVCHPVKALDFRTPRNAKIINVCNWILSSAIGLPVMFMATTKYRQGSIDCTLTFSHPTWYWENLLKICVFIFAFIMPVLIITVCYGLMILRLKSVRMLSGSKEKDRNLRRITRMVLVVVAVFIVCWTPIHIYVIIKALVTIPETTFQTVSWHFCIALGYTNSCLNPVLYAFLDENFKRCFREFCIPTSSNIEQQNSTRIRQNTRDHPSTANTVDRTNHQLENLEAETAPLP

T2 sequence (P35372 whole entry, species assumed): as the sequence (P35372 whole entry) above
T1 sequence (P35372 whole entry): as above

Row | SMILES | Emax [1] [%] | EC50 (μ opioid receptor (MOR)) [nM] | PCO2, 5 min before administration (SD rats) [mmHg] | PCO2, 5 min after administration (SD rats) [mmHg] | PCO2, 30 min after administration (SD rats) [mmHg] | PCO2, 60 min after administration (SD rats) [mmHg] | PCO2, 120 min after administration (SD rats) [mmHg] | EC50 [2] [nM]
1 | Fc1ccc(C2(CCNCc3ccccc3OC(F)(F)F)CCOC3(CCCC3)C2)nc1 (stereo not shown) [Example H21, {2-[9-(5-fluoro-pyridin-2-yl)-6-oxa-spiro[4.5]decan-9-yl]-ethyl}-(2-(trifluoromethoxy)-phenmethyl)-amine] | 0.08 | 4.02 | 36.77 ± 1.78 | 35.48 ± 1.72 | 36.03 ± 1.42 | 37.27 ± 1.94 | 36.83 ± 1.65 | 2.57
2 | FC(F)(F)Oc1ccc(Cl)cc1CNCCC1(c2ccccn2)CCOC2(CCCC2)C1 (stereo not shown) [Example H17, (5-chloro-2-trifluoromethoxybenzyl)-[2-(9-(pyridin-2-yl)-6-oxaspiro[4.5]decan-9-yl)ethyl]amine] | 1.78 | 8.68 | 34.77 ± 1.88 | 35.48 ± 1.74 | 34.03 ± 1.69 | 34.27 ± 1.4 | 34.83 ± 1.15 | 1.89
3 | FC(F)Oc1ccsc1CNCCC1(c2ccccn2)CCOC2(CCCC2)C1 (stereo not shown) [Example H18, ((3-difluoromethoxythiophen-2-yl)methyl)-[2-(9-(pyridin-2-yl)-6-oxaspiro[4.5]decan-9-yl)ethyl]a mine] | 0.48 | 7.32 | 33.77 ± 0.88 | 35.48 ± 1.54 | 34.03 ± 0.69 | 36.27 ± 1.4 | 34.83 ± 1.45 | 2.35
4 | CNc1ccsc1C(=O)NCCC1(c2ccccn2)CCOC2(CCCC2)C1 (stereo not shown) [Example H24, 3-methylamino-thiophene-2-carboxylic acid [2-(9-pyridin-2-yl-6-oxa-spiro[4.5]decan-9-yl)-ethyl]-amide] | 2.76 | 10.7 | 36.77 ± 1.94 | 36.48 ± 1.80 | 33.03 ± 0.72 | 36.27 ± 1.57 | 36.83 ± 1.73 | 3.74
5 | Cc1c(Cl)cccc1CNCCC1(c2ccccn2)CCOC2(CCCC2)C1 (stereo not shown) [Example H04, (3-chloro-2-methylbenzyl)-[2-(9-(pyridin-2-yl)-6-oxaspiro[4.5]decan-9-yl)ethyl]amine] | 6.12 | 6.05 | – | – | – | – | – | 4.36
6 | FC(F)Oc1ccccc1CNCCC1(c2ccccn2)CCOC2(CCCC2)C1 (stereo not shown) [Example H16, (2-difluoromethoxybenzyl)-[2-(9-(pyridin-2-yl)-6-oxaspiro[4.5]decan-9-yl)ethyl]amine] | 3.12 | 9.06 | 35.27 ± 0.43 | 30.48 ± 1.24 | 30.03 ± 0.62 | 31.27 ± 1.2 | 31.83 ± 1.40 | 1.36
